Results reported in patent US20260022142A1, “MACROCYCLIC IMMUNOMODULATORS” (Bristol-Myers Squibb Company, priority 2022, published 2026).
Bridge positions count the residues as written; N and C are the ends. Square brackets hold non-standard residues; d marks the D form. Peptide text beside a SMILES is read from it. * marks the point of attachment. ξ: configuration not given here. Bip = N[C@@H](Cc1ccc(-c2ccccc2)cc1)C(=O)O; Phe(3-Me) = Cc1cccc(C[C@H](N)C(=O)O)c1; Cha = N[C@@H](CC1CCCCC1)C(=O)O; Thr(3ξ) = CC(O)[C@H](N)C(=O)O; Carboxymethyl = O=C(O)C*; Orn = NCCC[C@H](N)C(=O)O; Aun = NCCCCCCCCCCC(=O)O; Dab = NCC[C@H](N)C(=O)O; Dap = NC[C@H](N)C(=O)O

Target: T1, PD-1/PD-L1 interaction (PE-labeled human PD-L1-Ig binding to Jurkat cell line over-expressing human PD-1) (Homo sapiens, UniProt Q15116)
T1 construct: expressed in transfected cells; host or cells: Jurkat
T1 sequence (Q15116 25-288): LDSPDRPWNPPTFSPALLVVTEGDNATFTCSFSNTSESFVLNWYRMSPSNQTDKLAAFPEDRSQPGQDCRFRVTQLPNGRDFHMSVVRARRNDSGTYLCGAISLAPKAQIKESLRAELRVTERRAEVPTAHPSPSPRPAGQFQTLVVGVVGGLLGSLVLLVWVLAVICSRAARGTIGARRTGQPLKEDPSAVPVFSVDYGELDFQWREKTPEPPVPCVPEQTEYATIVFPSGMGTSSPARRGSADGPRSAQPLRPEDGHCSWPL
Experiment: Jurkat-PD-1 Cell Binding High-Content Screening Assay (CBA)
Assay type: cell-based
Conditions: Jurkat cell line over-expressing human PD-1; PE-labeled PD-L1-Ig 20 nM final; read-out: Jurkat hPD1-PDL1 IC50
Summary of the method: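 First, compound is added to PD-1-expressing Jurkat cells in serum-containing DMEM and left 2 h at 37° C. Next, PE-conjugated PD-L1-Ig is introduced at 20 nM final concentration for 1 hour. Finally, cells are fixed in 4% paraformaldehyde with Hoechst 33342, washed and imaged.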

In order of rising IC50:
1. CC(C)C[C@H]1NC(=O)[C@H](CCCN)NC(=O)[C@H](C(C)C)NC(=O)[C@H](Cc2ccc(-c3ccccc3)cc2)NC(=O)[C@H](C(C)C)NC(=O)[C@H](Cc2c[nH]c3ccccc23)NC(=O)[C@H](CC(=O)O)NC(=O)[C@H](Cc2ccc(OCC(=O)O)cc2)NC(=O)[C@H](CN)NC(=O)CSC[C@@H](C(=O)N[C@@H](CCN)C(=O)NCCCCCCCCCCC(=O)O)NC(=O)[C@H](CCN)NC(=O)[C@H](C(C)O)NC(=O)[C@H](CC2CCCCC2)NC(=O)[C@H](CCN)NC1=O (stereo partly drawn) [Compound 3676] ({CH2CO}-[Dap]Y(Carboxymethyl)DWV[Bip]V[Orn][dL][Dab][Cha][Thr(3ξ)][Dab]C[Dab][Aun]-OH; thioether N-14)  9.2 nM
2. CC(C)C[C@H]1NC(=O)[C@H](CCCN)NC(=O)[C@H](C(C)C)NC(=O)[C@H](Cc2ccc(-c3ccccc3)cc2)NC(=O)[C@H](C(C)C)NC(=O)[C@H](Cc2c[nH]c3ccccc23)NC(=O)[C@H](CC(=O)O)NC(=O)[C@H](Cc2ccc(OCC(=O)O)cc2)NC(=O)[C@H](CN)NC(=O)CSC[C@@H](C(=O)N[C@@H](CCN)C(=O)NCCCCCCCCCCC(=O)O)NC(=O)[C@H](CCCN)NC(=O)[C@H](C(C)O)NC(=O)[C@H](CC2CCCCC2)NC(=O)[C@H](CCN)NC1=O (stereo partly drawn) [Compound 3677] ({CH2CO}-[Dap]Y(Carboxymethyl)DWV[Bip]V[Orn][dL][Dab][Cha][Thr(3ξ)][Orn]C[Dab][Aun]-OH; thioether N-14)  11.3 nM
3. CC(C)C[C@H]1NC(=O)[C@H](CCCN)NC(=O)[C@H](C(C)C)NC(=O)[C@H](Cc2ccc(-c3ccccc3)cc2)NC(=O)[C@H](C(C)C)NC(=O)[C@H](Cc2c[nH]c3ccccc23)NC(=O)[C@H](CC(=O)O)NC(=O)[C@H](Cc2ccc(OCC(=O)O)cc2)NC(=O)[C@H](C(C)O)NC(=O)CSC[C@@H](C(=O)N[C@@H](CCN)C(=O)NCCCCCCCCCCC(=O)O)NC(=O)[C@H](CCN)NC(=O)[C@H](C(C)O)NC(=O)[C@H](CC2CCCCC2)NC(=O)[C@H](CCN)NC1=O (stereo partly drawn) [Compound 3674] ({CH2CO}-[Thr(3ξ)]Y(Carboxymethyl)DWV[Bip]V[Orn][dL][Dab][Cha][Thr(3ξ)][Dab]C[Dab][Aun]-OH; thioether N-14)  13.4 nM
4. CC(C)C[C@H]1NC(=O)[C@H](CCCN)NC(=O)[C@H](C(C)C)NC(=O)[C@H](Cc2ccc(-c3ccccc3)cc2)NC(=O)[C@H](C(C)C)NC(=O)[C@H](Cc2c[nH]c3ccccc23)NC(=O)[C@H](CC(=O)O)NC(=O)[C@H](Cc2ccc(OCC(=O)O)cc2)NC(=O)[C@H](C(C)O)NC(=O)CSC[C@@H](C(=O)N[C@@H](CCN)C(=O)NCCCCCCCCCCC(=O)O)NC(=O)[C@H](CCCN)NC(=O)[C@H](C(C)O)NC(=O)[C@H](CC2CCCCC2)NC(=O)[C@H](CCN)NC1=O (stereo partly drawn) [Compound 3675] ({CH2CO}-[Thr(3ξ)]Y(Carboxymethyl)DWV[Bip]V[Orn][dL][Dab][Cha][Thr(3ξ)][Orn]C[Dab][Aun]-OH; thioether N-14)  19.3 nM
5. Cc1cccc(C[C@@H]2NC(=O)[C@H](CC(=O)O)NC(=O)[C@H](Cc3ccc(OCC(=O)O)cc3)NC(=O)[C@H](CCN)NC(=O)CSC[C@@H](C(=O)N[C@@H](CCN)C(=O)NCCCCCCCCCCC(=O)O)NC(=O)[C@H](CO)NC(=O)[C@H](C(C)O)NC(=O)[C@H](CC3CCCCC3)NC(=O)[C@H](Cc3cnc[nH]3)NC(=O)[C@@H](CC(C)C)NC(=O)[C@H](CCCN)NC(=O)[C@H](Cc3ccc(OCC(=O)O)cc3)NC(=O)[C@H](Cc3ccc(-c4ccccc4)cc3)NC(=O)[C@H](Cc3ccc(OCC(=O)O)cc3)NC2=O)c1 (stereo partly drawn) [Compound 3672] ({CH2CO}-[Dab]Y(Carboxymethyl)D[Phe(3-Me)]Y(Carboxymethyl)[Bip]Y(Carboxymethyl)[Orn][dL]H[Cha][Thr(3ξ)]SC[Dab][Aun]-OH; thioether N-14)  20.7 nM
6. CC(C)C[C@H]1NC(=O)[C@H](CCCN)NC(=O)[C@H](C(C)C)NC(=O)[C@H](Cc2ccc(-c3ccccc3)cc2)NC(=O)[C@H](C(C)C)NC(=O)[C@H](Cc2c[nH]c3ccccc23)NC(=O)[C@H](CC(=O)O)NC(=O)[C@H](Cc2ccc(OCC(=O)O)cc2)NC(=O)[C@H](C(C)O)NC(=O)CSC[C@@H](C(=O)N[C@@H](CCN)C(=O)NCCCCCCCCCCC(=O)O)NC(=O)[C@H](Cc2cnc[nH]2)NC(=O)[C@H](C(C)O)NC(=O)[C@H](CC2CCCCC2)NC(=O)[C@H](CCN)NC1=O (stereo partly drawn) [Compound 3665] ({CH2CO}-[Thr(3ξ)]Y(Carboxymethyl)DWV[Bip]V[Orn][dL][Dab][Cha][Thr(3ξ)]HC[Dab][Aun]-OH; thioether N-14)  23.2 nM
7. CC(C)C[C@H]1NC(=O)[C@H](CCCN)NC(=O)[C@H](C(C)C)NC(=O)[C@H](Cc2ccc(-c3ccccc3)cc2)NC(=O)[C@H](C(C)C)NC(=O)[C@H](Cc2c[nH]c3ccccc23)NC(=O)[C@H](CC(=O)O)NC(=O)[C@H](Cc2ccc(OCC(=O)O)cc2)NC(=O)[C@H](C(C)O)NC(=O)CSC[C@@H](C(=O)N[C@@H](CCN)C(=O)NCCCCCCCCCCC(=O)O)NC(=O)[C@H](CCCCN)NC(=O)[C@H](C(C)O)NC(=O)[C@H](CC2CCCCC2)NC(=O)[C@H](CCN)NC1=O (stereo partly drawn) [Compound 3673] ({CH2CO}-[Thr(3ξ)]Y(Carboxymethyl)DWV[Bip]V[Orn][dL][Dab][Cha][Thr(3ξ)]KC[Dab][Aun]-OH; thioether N-14)  29.2 nM
8. CC(C)C[C@H]1NC(=O)[C@H](CCCN)NC(=O)[C@H](C(C)C)NC(=O)[C@H](Cc2ccc(-c3ccccc3)cc2)NC(=O)[C@H](C(C)C)NC(=O)[C@H](Cc2c[nH]c3ccccc23)NC(=O)[C@H](CC(=O)O)NC(=O)[C@H](Cc2ccc(OCC(=O)O)cc2)NC(=O)[C@H](C(C)O)NC(=O)CSC[C@@H](C(=O)N[C@@H](CCN)C(=O)NCCCCCCCCCCC(=O)O)NC(=O)[C@H](CO)NC(=O)[C@H](CCCCN)NC(=O)[C@H](CC2CCCCC2)NC(=O)[C@H](CCN)NC1=O (stereo partly drawn) [Compound 3666] ({CH2CO}-[Thr(3ξ)]Y(Carboxymethyl)DWV[Bip]V[Orn][dL][Dab][Cha]KSC[Dab][Aun]-OH; thioether N-14)  32 nM
9. CC(C)C[C@H]1NC(=O)[C@H](CCCN)NC(=O)[C@H](Cc2ccc(O)cc2)NC(=O)[C@H](Cc2ccc(-c3ccccc3)cc2)NC(=O)[C@H](C(C)C)NC(=O)[C@H](Cc2c[nH]c3ccccc23)NC(=O)[C@H](CC(=O)O)NC(=O)[C@H](Cc2ccc(OCC(=O)O)cc2)NC(=O)[C@H](C(C)O)NC(=O)CSC[C@@H](C(=O)N[C@@H](CCN)C(=O)NCCCCCCCCCCC(=O)O)NC(=O)[C@H](CN)NC(=O)[C@H](C(C)O)NC(=O)[C@H](CC2CCCCC2)NC(=O)[C@H](CCN)NC1=O (stereo partly drawn) [Compound 3667] ({CH2CO}-[Thr(3ξ)]Y(Carboxymethyl)DWV[Bip]Y[Orn][dL][Dab][Cha][Thr(3ξ)][Dap]C[Dab][Aun]-OH; thioether N-14)  37.4 nM
10. CC(C)C[C@H]1NC(=O)[C@H](CCCN)NC(=O)[C@H](Cc2ccc(O)cc2)NC(=O)[C@H](Cc2ccc(-c3ccccc3)cc2)NC(=O)[C@H](Cc2ccc(O)cc2)NC(=O)[C@H](Cc2c[nH]c3ccccc23)NC(=O)[C@H](CC(=O)O)NC(=O)[C@H](Cc2ccc(OCC(=O)O)cc2)NC(=O)[C@H](C(C)O)NC(=O)CSC[C@@H](C(=O)N[C@@H](CCN)C(=O)NCCCCCCCCCCC(=O)O)NC(=O)[C@H](CCCCN)NC(=O)[C@H](C(C)O)NC(=O)[C@H](CC2CCCCC2)NC(=O)[C@H](CCN)NC1=O (stereo partly drawn) [Compound 3670] ({CH2CO}-[Thr(3ξ)]Y(Carboxymethyl)DWY[Bip]Y[Orn][dL][Dab][Cha][Thr(3ξ)]KC[Dab][Aun]-OH; thioether N-14)  64.2 nM
11. CC(C)C[C@H]1NC(=O)[C@H](CCCN)NC(=O)[C@H](Cc2ccc(O)cc2)NC(=O)[C@H](Cc2ccc(-c3ccccc3)cc2)NC(=O)[C@H](C(C)C)NC(=O)[C@H](Cc2c[nH]c3ccccc23)NC(=O)[C@H](CC(=O)O)NC(=O)[C@H](Cc2ccc(OCC(=O)O)cc2)NC(=O)[C@H](C(C)O)NC(=O)CSC[C@@H](C(=O)N[C@@H](CCN)C(=O)NCCCCCCCCCCC(=O)O)NC(=O)[C@H](CCCCN)NC(=O)[C@H](C(C)O)NC(=O)[C@H](CC2CCCCC2)NC(=O)[C@H](CCN)NC1=O (stereo partly drawn) [Compound 3668] ({CH2CO}-[Thr(3ξ)]Y(Carboxymethyl)DWV[Bip]Y[Orn][dL][Dab][Cha][Thr(3ξ)]KC[Dab][Aun]-OH; thioether N-14)  78.3 nM
12. CC(C)C[C@@H]1NC(=O)[C@H](Cc2c[nH]c3ccccc23)NC(=O)[C@H](CC(=O)O)NC(=O)[C@H](Cc2ccc(OCC(=O)O)cc2)NC(=O)[C@H](C(C)O)NC(=O)CSC[C@@H](C(=O)N[C@@H](CCN)C(=O)NCCCCCCCCCCC(=O)O)NC(=O)[C@H](CN)NC(=O)[C@H](C(C)O)NC(=O)[C@H](CC2CCCCC2)NC(=O)[C@H](CCN)NC(=O)[C@@H](CC(C)C)NC(=O)[C@H](CCCN)NC(=O)[C@H](Cc2ccc(O)cc2)NC(=O)[C@H](Cc2ccc(-c3ccccc3)cc2)NC1=O (stereo partly drawn) [Compound 3671] ({CH2CO}-[Thr(3ξ)]Y(Carboxymethyl)DWL[Bip]Y[Orn][dL][Dab][Cha][Thr(3ξ)][Dap]C[Dab][Aun]-OH; thioether N-14)  105 nM
13. CC(C)C[C@H]1NC(=O)[C@H](CCCN)NC(=O)[C@H](Cc2ccc(O)cc2)NC(=O)[C@H](Cc2ccc(-c3ccccc3)cc2)NC(=O)[C@H](Cc2ccc(O)cc2)NC(=O)[C@H](Cc2c[nH]c3ccccc23)NC(=O)[C@H](CC(=O)O)NC(=O)[C@H](Cc2ccc(OCC(=O)O)cc2)NC(=O)[C@H](C(C)O)NC(=O)CSC[C@@H](C(=O)N[C@@H](CCN)C(=O)NCCCCCCCCCCC(=O)O)NC(=O)[C@H](CN)NC(=O)[C@H](C(C)O)NC(=O)[C@H](CC2CCCCC2)NC(=O)[C@H](CCN)NC1=O (stereo partly drawn) [Compound 3669] ({CH2CO}-[Thr(3ξ)]Y(Carboxymethyl)DWY[Bip]Y[Orn][dL][Dab][Cha][Thr(3ξ)][Dap]C[Dab][Aun]-OH; thioether N-14)  152 nM
